Test [1] has as its target T1, purified integrin αvβ3 (Homo sapiens, UniProt P05106+P06756).
T1 construct: purchased Chemicon
In words: ELISA on purified receptor: RGD-STZ ligand mediated ternary complex formation with anti-STZ rabbit serum. The class given is binding. The method, then:
Indirect recognition of integrin by streptavidin mediated by RGD-biotin was used as positive control.
96 well polystyrene plates (Nunc) were coated with 1 μg/ml of purified integrin αvβ3 (Chemicon) in buffer: 50 mM Hepes , 0.1 M NaCl, 2 mM CaCl2, 1 mM MnCl2, 1 mM MgCl2 pH 7.5. Blocking was performed with 3% BSA in the same buffer for at least 1 hr.
Ternary complex formation was obtained in concurrent or sequential mode. For sequential mode experiment the ELISA plate was incubated with RGD-STZ (root of ten dilutions starting from 10 μg/ml); 2 hr, room temperature, followed by anti-STZ rabbit serum diluted 3000 times, 1 hr RT. In the concurrent mode the incubation mixture contained both RGD-STZ and anti-STZ rabbit serum. Serum concentration was kept constant (1/3000) while RGD-STZ concentration was varied as before; incubation time 2 hr. The formed complex was detected with goat anti-Rabbit HRP conjugate. Dilutions were made in same buffer supplemented with 0.05% Tween and 0.1% BSA. BSA was not included in the washing steps.
Solid-phase assays were conducted in two different formats: concurrent and sequential incubation. In the concurrent format, RGD-STZ was premixed with rabbit serum 1E6 and incubated on the plate, which was pre-coated with integrin αvβ3. In the sequential format, RGD-STZ was incubated on the integrin coated plate, washed and rabbit serum 1E6 was applied. In both formats, the signal was developed by detection of rabbit antibodies with anti-rabbit HRP antibody conjugate. […] This range of IBAIT concentrations in which a stable ternary complex is produced constitutes a therapeutic window, where the IBAIT can be applied for targeting immunoglobulins to malignancies.
That is, the sequential addition of antibody results in the continued formation of stable ternary complexes until receptor saturation plateaus.

In test [2] the test system is HTB-14 cells. In words: Ligand-mediated immunostaining of cells via RGD-STZ and anti-STZ serum. It counts as cell-based. Conditions: sequential: RGD-STZ, formaldehyde fixation, anti-STZ serum. The method, then: Cells could be stained through the ligand mediated association of antibody to the integrin molecule on the cell.
Ligand-mediated staining of HTB-14 cells was performed by incubations in sequential order. Cell were first treated with RGD-STZ then fixed with formaldehyde and stained using anti-STZ serum.
Cells were cultivated as described above. For staining, 6 well tissue culture plate containing chambered cover glasses was placed on ice and medium (DMEM, 10% FBS) replaced with same medium containing mixture of RGD-STZ and anti-STZ serum premixed at proportion giving highest signal in ELISA assay (˜10 μg of RGD-STZ in ml of rabbit serum). Mixture of RGD-STZ and serum was diluted in medium 30, 300 and 3000 times.
After 30 min of incubation specimens were washed with ice cold medium 3 times and incubated with Goat anti-Rabbit Alexa488 at concentration 10 μg/ml in DMEM. After 3 rinses with ice cold DMEM cells were fixed with 10% paraformaldehyde in PBS at room temperature, washed with PBS and mounted as above.
In some experiments cells were primed with RGD-STZ (50 μg/ml in DMEM) on ice for 20 min. then fixed with paraformaldehyde and stained further like described in first protocol.

This note sets out measurements from US20070134259A1, “Methods and compositions for pharmacologially controlled targeted immunotherapy” (priority 2005, published 2007).

T1 sequence (P06756 31-889 limits assumed): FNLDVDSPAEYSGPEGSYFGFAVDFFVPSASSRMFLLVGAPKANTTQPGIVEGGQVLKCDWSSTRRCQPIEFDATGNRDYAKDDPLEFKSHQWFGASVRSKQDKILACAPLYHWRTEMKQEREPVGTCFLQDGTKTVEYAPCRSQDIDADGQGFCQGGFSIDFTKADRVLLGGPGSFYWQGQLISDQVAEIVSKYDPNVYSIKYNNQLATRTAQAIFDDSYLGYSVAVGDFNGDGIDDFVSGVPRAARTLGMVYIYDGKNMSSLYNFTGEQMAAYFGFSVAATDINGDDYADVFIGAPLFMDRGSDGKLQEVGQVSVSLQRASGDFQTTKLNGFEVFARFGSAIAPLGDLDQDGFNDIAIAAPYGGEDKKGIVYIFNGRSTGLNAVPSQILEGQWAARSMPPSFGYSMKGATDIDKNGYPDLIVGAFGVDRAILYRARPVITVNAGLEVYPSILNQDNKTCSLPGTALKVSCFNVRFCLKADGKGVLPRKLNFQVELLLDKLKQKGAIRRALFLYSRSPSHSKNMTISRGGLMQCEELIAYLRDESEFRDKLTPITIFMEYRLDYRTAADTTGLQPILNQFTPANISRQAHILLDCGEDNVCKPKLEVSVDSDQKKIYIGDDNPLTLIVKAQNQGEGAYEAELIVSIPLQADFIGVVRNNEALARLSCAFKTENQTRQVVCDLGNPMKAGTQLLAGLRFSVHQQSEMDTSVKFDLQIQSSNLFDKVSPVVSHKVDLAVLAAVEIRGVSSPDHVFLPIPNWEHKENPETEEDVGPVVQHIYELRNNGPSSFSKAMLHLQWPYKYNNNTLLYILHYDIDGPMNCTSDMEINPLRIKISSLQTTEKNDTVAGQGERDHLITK
T1 sequence (P06756 891-1048 partner limits assumed): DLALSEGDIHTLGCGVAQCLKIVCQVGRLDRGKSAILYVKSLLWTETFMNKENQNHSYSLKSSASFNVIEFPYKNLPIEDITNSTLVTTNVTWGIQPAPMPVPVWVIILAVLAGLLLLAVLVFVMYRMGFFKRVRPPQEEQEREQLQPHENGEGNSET
T1 sequence (P05106 27-788): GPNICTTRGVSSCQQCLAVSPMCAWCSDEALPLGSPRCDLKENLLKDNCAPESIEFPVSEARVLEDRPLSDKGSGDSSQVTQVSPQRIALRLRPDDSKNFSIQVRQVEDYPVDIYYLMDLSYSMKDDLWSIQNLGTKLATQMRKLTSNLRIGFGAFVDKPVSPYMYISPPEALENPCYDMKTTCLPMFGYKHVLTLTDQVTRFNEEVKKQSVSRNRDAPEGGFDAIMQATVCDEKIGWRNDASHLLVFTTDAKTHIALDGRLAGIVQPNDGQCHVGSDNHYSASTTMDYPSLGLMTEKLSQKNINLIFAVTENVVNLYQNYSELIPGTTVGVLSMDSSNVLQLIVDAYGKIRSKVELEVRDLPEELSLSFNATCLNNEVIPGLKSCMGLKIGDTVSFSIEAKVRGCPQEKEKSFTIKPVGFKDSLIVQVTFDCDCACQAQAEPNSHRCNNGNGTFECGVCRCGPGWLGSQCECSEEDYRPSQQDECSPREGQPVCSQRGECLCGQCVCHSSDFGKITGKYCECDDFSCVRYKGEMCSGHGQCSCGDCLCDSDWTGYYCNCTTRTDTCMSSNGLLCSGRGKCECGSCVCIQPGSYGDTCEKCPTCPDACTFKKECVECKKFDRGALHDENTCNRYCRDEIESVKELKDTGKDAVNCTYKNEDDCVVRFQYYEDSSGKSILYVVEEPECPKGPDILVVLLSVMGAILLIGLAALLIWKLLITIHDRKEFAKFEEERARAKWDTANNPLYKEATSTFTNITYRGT

On to cyclo(-R-G-D-f-K(STZ)) [RGD-STZ], for which the “concentration dependence of ELISA signal (ternary complex formation), concurrent incubation” value in test [1] (concurrent format: RGD-STZ premixed with rabbit serum, incubated on integrin coated plate, FIG. 5A) is reported as “bell-shaped concentration dependencies”. Besides, the “indirect recognition of the integrin by anti-STZ antibodies mediated by the ligand” value in test [1] (plates coated with purified αvβ3 integrin, anti-STZ rabbit serum, goat anti-Rabbit HRP detection) is “excellent indirect recognition”. In addition, the “proportion of RGD-STZ and anti-STZ serum giving highest signal in ELISA assay” value in test [1] (premixed RGD-STZ and anti-STZ serum) was ~10 μg of RGD-STZ in ml of rabbit serum. Further, the “concentration dependence of ELISA signal (ternary complex formation), sequential incubation” value in test [1] (sequential format: RGD-STZ incubated on integrin coated plate, washed, then rabbit serum, FIG. 5B) is listed as “signal that steadily increased with increasing RGD-STZ (IBAIT) concentration”. For the same substance, the “ligand-mediated staining pattern of cells” value in test [2] is “distinct pattern of dots on the plasma membrane as well as general fluorescent illumination of cells”.
